Earlier results in patent publication US20140274796A1, “Methods, Systems, and Compositions for In Vitro Concentric Cell Culture Analog Systems” (University of Central Florida Research Foundation, Inc., priority 2013, published 2014).

Legend:
[1] = literature statement [Scollon 2009]
[2] = in vivo
[3] = system: sodium-channels of squid axon-membranes; details: literature statement [Lund 1982]

Compound	metabolic rate relative to trans isoform [1]	toxicity relative to trans isomers [2]	activity of stereospecific isomer [3]
CC1(C)C(C=C(Cl)Cl)C1C(=O)OCc1cccc(Oc2ccccc2)c1 (single isomer, unassigned) [cis isomers, permethrin]	much slower	about ten times more toxic than the trans isomers	–
CC1(C)C(C=C(Cl)Cl)C1C(=O)OCc1cccc(Oc2ccccc2)c1 (stereo not drawn) [1R-cis-, permethrin]	–	–	active
CC1(C)C(C=C(Cl)Cl)C1C(=O)OCc1cccc(Oc2ccccc2)c1 (stereo not drawn) [1S-cis-, permethrin]	–	–	not
CC1(C)C(C=C(Cl)Cl)C1C(=O)OCc1cccc(Oc2ccccc2)c1 (stereo not drawn) [1R-trans-, permethrin]	–	–	active
CC1(C)C(C=C(Cl)Cl)C1C(=O)OCc1cccc(Oc2ccccc2)c1 (stereo not drawn) [1S-trans-, permethrin]	–	–	not
